Read-outs that look alike come from different tables or passages of the source. Positions of bridges follow the written chain, without caps; N, C: chain ends. Non-standard residues stand in square brackets, D forms with d. Residues, ends and D or L forms follow the SMILES beside them. Phe(4-COOH) = N[C@@H](Cc1ccc(C(=O)O)cc1)C(=O)O; Arg(Me2s) = CN=C(NC)NCCC[C@H](N)C(=O)O; NMeF = CN[C@@H](Cc1ccccc1)C(=O)O; 2Pal = N[C@@H](Cc1ccccn1)C(=O)O
What was measured:
Assay in all cases: cell-based
[1] = target: hNav1.3 (Homo sapiens, UniProt Q9NY46); settings: IonWorks Quattro, use, […], read-out: IWQ Use Nav1.3
[2] = target: hNav1.5 (Homo sapiens, UniProt Q14524); settings: IonWorks Quattro, use, […], read-out: IWQ Use Nav1.5
[3] = target: hNav1.7 (Homo sapiens, UniProt Q15858); type: cell-based; settings: IonWorks Quattro, use, […], read-out: IWQ Use Nav1.7

Chain of hNav1.3 (Q9NY46 whole entry, looked up): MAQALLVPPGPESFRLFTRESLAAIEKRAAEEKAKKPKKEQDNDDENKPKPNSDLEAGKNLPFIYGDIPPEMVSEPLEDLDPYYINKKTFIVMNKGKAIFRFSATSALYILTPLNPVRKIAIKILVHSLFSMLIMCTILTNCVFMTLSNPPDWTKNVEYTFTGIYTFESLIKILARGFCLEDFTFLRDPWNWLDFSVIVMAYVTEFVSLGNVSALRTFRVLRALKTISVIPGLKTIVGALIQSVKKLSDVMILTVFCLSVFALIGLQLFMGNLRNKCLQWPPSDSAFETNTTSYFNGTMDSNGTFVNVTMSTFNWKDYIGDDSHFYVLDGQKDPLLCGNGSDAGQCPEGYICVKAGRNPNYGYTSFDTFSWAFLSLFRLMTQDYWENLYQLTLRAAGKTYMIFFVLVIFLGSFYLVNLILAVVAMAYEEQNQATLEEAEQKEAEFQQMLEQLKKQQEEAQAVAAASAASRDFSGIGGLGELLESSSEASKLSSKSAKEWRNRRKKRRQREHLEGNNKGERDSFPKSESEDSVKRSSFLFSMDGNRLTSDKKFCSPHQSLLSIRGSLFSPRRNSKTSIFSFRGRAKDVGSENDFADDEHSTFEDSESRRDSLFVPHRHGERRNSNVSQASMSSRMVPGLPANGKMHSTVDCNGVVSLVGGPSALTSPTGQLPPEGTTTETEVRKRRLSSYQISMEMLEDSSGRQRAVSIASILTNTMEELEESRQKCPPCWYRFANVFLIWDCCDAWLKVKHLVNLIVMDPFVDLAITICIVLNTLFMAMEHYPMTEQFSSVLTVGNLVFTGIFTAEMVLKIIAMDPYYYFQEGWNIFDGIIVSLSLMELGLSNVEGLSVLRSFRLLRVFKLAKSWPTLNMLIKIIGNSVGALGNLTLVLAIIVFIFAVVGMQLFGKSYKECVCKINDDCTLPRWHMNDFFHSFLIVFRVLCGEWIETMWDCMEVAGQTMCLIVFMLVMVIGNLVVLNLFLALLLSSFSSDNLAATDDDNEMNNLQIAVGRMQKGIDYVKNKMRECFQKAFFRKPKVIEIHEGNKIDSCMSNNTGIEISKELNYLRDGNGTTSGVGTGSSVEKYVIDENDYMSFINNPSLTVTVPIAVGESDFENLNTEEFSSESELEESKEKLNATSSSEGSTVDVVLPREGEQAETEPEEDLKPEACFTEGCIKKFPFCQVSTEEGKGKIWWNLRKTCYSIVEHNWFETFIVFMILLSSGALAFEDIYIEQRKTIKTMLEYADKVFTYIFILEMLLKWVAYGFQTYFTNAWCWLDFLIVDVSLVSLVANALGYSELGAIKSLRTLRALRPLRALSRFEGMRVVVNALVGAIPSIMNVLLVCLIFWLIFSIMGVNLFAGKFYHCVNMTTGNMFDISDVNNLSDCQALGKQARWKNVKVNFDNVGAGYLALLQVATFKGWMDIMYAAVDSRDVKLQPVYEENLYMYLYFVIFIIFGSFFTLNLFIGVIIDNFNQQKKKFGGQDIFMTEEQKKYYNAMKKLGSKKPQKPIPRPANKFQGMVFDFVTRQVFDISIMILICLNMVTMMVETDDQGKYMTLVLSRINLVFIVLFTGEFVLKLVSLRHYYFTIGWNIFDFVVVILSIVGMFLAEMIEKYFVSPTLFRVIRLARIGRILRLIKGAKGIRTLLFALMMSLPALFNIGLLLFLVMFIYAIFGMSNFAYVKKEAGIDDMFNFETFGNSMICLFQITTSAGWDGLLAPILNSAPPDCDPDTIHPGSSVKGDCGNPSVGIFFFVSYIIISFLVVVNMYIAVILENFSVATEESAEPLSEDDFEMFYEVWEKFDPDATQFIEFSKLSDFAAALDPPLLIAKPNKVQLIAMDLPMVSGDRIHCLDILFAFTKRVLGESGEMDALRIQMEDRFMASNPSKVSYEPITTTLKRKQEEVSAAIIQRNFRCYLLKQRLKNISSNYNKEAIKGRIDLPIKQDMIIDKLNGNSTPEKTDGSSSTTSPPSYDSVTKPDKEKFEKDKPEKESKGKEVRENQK
Chain of hNav1.5 (Q14524 whole entry, looked up): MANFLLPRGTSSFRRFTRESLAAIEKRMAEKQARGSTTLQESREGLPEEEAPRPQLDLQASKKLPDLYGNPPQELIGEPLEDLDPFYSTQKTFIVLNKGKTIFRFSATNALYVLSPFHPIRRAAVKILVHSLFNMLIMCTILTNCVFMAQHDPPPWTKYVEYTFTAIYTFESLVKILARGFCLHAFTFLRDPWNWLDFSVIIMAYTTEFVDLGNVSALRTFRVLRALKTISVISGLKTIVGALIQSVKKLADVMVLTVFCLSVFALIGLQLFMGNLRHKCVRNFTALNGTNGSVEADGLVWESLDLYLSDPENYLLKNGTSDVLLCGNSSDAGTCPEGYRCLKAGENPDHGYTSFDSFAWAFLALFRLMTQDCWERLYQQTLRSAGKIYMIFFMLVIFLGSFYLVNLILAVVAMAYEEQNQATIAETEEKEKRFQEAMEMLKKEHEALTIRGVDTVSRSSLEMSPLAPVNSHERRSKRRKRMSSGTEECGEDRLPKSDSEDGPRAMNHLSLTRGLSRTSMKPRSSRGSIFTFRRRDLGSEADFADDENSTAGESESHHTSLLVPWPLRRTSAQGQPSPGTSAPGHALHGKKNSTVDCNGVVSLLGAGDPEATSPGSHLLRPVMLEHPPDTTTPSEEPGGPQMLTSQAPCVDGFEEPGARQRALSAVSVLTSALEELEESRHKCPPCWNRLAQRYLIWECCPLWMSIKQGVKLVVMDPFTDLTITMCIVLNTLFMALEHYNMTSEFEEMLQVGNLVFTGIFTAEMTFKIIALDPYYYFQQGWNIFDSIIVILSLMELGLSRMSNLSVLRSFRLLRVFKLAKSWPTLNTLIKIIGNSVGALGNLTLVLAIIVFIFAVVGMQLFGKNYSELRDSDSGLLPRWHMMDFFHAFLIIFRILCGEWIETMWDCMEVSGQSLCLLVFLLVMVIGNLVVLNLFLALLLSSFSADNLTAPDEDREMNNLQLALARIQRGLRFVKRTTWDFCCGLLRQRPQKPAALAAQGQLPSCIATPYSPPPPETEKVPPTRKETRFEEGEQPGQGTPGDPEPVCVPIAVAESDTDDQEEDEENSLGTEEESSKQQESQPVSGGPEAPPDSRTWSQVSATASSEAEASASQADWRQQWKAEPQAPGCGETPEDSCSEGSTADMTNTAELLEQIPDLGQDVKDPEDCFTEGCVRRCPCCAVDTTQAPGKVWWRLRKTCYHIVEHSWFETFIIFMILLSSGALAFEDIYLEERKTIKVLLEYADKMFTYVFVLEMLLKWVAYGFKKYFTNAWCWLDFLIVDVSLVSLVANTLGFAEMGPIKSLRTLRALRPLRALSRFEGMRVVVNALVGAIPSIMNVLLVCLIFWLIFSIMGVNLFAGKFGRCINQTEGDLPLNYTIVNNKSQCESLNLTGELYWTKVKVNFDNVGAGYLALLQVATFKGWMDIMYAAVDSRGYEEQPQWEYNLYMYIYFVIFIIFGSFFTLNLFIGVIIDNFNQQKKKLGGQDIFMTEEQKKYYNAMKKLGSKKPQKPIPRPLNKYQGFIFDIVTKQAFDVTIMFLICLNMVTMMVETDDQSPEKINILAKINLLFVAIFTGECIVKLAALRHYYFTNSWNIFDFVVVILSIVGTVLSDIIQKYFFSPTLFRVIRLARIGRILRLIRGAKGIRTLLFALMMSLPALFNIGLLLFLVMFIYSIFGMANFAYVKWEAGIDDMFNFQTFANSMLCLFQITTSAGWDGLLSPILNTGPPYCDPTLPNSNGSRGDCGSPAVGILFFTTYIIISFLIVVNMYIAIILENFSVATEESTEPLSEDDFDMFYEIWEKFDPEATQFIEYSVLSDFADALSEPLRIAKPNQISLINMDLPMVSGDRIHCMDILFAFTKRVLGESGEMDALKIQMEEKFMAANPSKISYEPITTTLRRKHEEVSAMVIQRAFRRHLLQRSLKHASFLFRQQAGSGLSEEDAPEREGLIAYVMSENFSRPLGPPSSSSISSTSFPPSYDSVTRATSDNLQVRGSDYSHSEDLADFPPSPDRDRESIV

SMILES | IC50 ([1]; Table 24) | IC50 ([2]; Table 24) | IC50 ([3]; Table 24) | IC50 ([1]; Table 25) | IC50 ([2]; Table 25) | IC50 ([3]; Table 25)
CC[C@H](C)[C@@H]1NC(=O)[C@@H]2CSSC[C@@H]3NC(=O)[C@H](C(C)C)NC(=O)[C@H](CC(C)C)NC(=O)[C@H](CC(N)=O)NC(=O)[C@@H]4CCCN4C(=O)[C@H](CCCNC(=N)N)NC(=O)[C@H](CSSC[C@H](NC(=O)[C@@H](N)CC(=O)O)C(=O)N[C@@H](CC(C)C)C(=O)NCC(=O)N[C@@H](Cc4ccccc4)C(=O)N[C@@H](CCSC)C(=O)N[C@@H](CCCNC(=N)N)C(=O)N[C@@H](CCCCN)C(=O)N2)NC(=O)[C@H](CSSC[C@@H](C(=O)N[C@@H](CCCCN)C(=O)N[C@@H](Cc2ccc(O)cc2)C(=O)N[C@H](C(=O)N[C@@H](Cc2ccccc2)C(N)=O)C(C)C)NC(=O)[C@H](Cc2ccc(C(=O)O)cc2)NC(=O)[C@H](CCCCN)NC(=O)[C@H](Cc2c[nH]cn2)NC(=O)[C@H]([C@@H](C)O)NC(=O)[C@H](CCCNC(=N)N)NC(=O)[C@H](CO)NC3=O)NC(=O)[C@H](CCCCN)NC(=O)[C@H](CC(=O)O)NC(=O)[C@H](CC(N)=O)NC(=O)[C@H](CC(=O)O)NC(=O)[C@@H]2CCCN2C1=O [compound 363] (H-DCLGFMRKCIPDNDKCCRPNLVCSRTHK[Phe(4-COOH)]CKYVF-NH2; disulfide 2-17, 9-23, 16-30) | 14.9 µM | 18.8 µM | 15 µM | – | – | –
CC[C@H](C)[C@@H]1NC(=O)[C@@H]2CSSC[C@@H]3NC(=O)[C@H](C(C)C)NC(=O)[C@H](CC(C)C)NC(=O)[C@H](CC(N)=O)NC(=O)[C@@H]4CCCN4C(=O)[C@H](CCCNC(=N)N)NC(=O)[C@H](CSSC[C@H](NC(=O)[C@@H](N)CC(=O)O)C(=O)N[C@@H](CC(C)C)C(=O)NCC(=O)N[C@@H](Cc4ccccc4)C(=O)N[C@@H](CCSC)C(=O)N[C@@H](CCCNC(=N)N)C(=O)N[C@@H](CCCCN)C(=O)N2)NC(=O)[C@H](CSSC[C@@H](C(=O)N[C@@H](Cc2ccccn2)C(=O)N[C@@H](Cc2ccc(O)cc2)C(=O)N[C@H](C(=O)N[C@@H](Cc2ccccc2)C(N)=O)C(C)C)NC(=O)[C@H](Cc2c[nH]c4ccccc24)NC(=O)[C@H](CCCCN)NC(=O)[C@H](Cc2c[nH]cn2)NC(=O)[C@H]([C@@H](C)O)NC(=O)[C@H](CCCNC(=N)N)NC(=O)[C@H](CO)NC3=O)NC(=O)[C@H](CCCCN)NC(=O)[C@H](CC(=O)O)NC(=O)[C@H](CC(N)=O)NC(=O)[C@H](CC(=O)O)NC(=O)[C@@H]2CCCN2C1=O [compound 364] (H-DCLGFMRKCIPDNDKCCRPNLVCSRTHKWC[2Pal]YVF-NH2; disulfide 2-17, 9-23, 16-30) | – | – | – | 16.9 µM | 9.49 µM | 11 µM
CC[C@H](C)[C@@H]1NC(=O)[C@@H]2CSSC[C@@H]3NC(=O)[C@H](C(C)C)NC(=O)[C@H](CC(C)C)NC(=O)[C@H](CC(N)=O)NC(=O)[C@@H]4CCCN4C(=O)[C@H](CCCNC(=N)N)NC(=O)[C@H](CSSC[C@H](NC(=O)[C@@H](N)CC(=O)O)C(=O)N[C@@H](CC(C)C)C(=O)NCC(=O)N[C@@H](Cc4ccccc4)C(=O)N[C@@H](CCSC)C(=O)N[C@@H](CCCNC(=N)N)C(=O)N[C@@H](CCCCN)C(=O)N2)NC(=O)[C@H](CSSC[C@@H](C(=O)N[C@@H](CCCNC(=NC)NC)C(=O)N[C@@H](Cc2ccc(O)cc2)C(=O)N[C@H](C(=O)N[C@@H](Cc2ccccc2)C(N)=O)C(C)C)NC(=O)[C@H](Cc2c[nH]c4ccccc24)NC(=O)[C@H](CCCCN)NC(=O)[C@H](Cc2c[nH]cn2)NC(=O)[C@H]([C@@H](C)O)NC(=O)[C@H](CCCNC(=N)N)NC(=O)[C@H](CO)NC3=O)NC(=O)[C@H](CCCCN)NC(=O)[C@H](CC(=O)O)NC(=O)[C@H](CC(N)=O)NC(=O)[C@H](CC(=O)O)NC(=O)[C@@H]2CCCN2C1=O [compound 365] (H-DCLGFMRKCIPDNDKCCRPNLVCSRTHKWC[Arg(Me2s)]YVF-NH2; disulfide 2-17, 9-23, 16-30) | – | – | – | 4.55 µM | 14.2 µM | 4.15 µM
CC[C@H](C)[C@@H]1NC(=O)[C@@H]2CSSC[C@@H]3NC(=O)[C@H](C(C)C)NC(=O)[C@H](CC(C)C)NC(=O)[C@H](CC(N)=O)NC(=O)[C@@H]4CCCN4C(=O)[C@H](CCCNC(=N)N)NC(=O)[C@H](CSSC[C@H](NC(=O)[C@@H](N)CC(=O)O)C(=O)N[C@@H](CC(C)C)C(=O)NCC(=O)N[C@@H](Cc4ccccc4)C(=O)N[C@@H](CCSC)C(=O)N[C@@H](CCCNC(=N)N)C(=O)N[C@@H](CCCCN)C(=O)N2)NC(=O)[C@H](CSSC[C@@H](C(=O)N[C@@H](CCCCN)C(=O)N[C@@H](CCC(N)=O)C(=O)N[C@H](C(=O)N[C@@H](Cc2ccccc2)C(N)=O)C(C)C)NC(=O)[C@H](Cc2c[nH]c4ccccc24)NC(=O)[C@H](CCCCN)NC(=O)[C@H](Cc2c[nH]cn2)NC(=O)[C@H]([C@@H](C)O)NC(=O)[C@H](CCCNC(=N)N)NC(=O)[C@H](CO)NC3=O)NC(=O)[C@H](CCCCN)NC(=O)[C@H](CC(=O)O)NC(=O)[C@H](CC(N)=O)NC(=O)[C@H](CC(=O)O)NC(=O)[C@@H]2CCCN2C1=O [compound 366] (H-DCLGFMRKCIPDNDKCCRPNLVCSRTHKWCKQVF-NH2; disulfide 2-17, 9-23, 16-30) | – | – | – | 2.39 µM | 21 µM | 4.87 µM
CC[C@H](C)[C@H](NC(=O)[C@H](CCCCN)NC(=O)[C@@H]1CSSC[C@@H]2NC(=O)[C@H](CCCCN)NC(=O)[C@H](CC(=O)O)NC(=O)[C@H](CC(N)=O)NC(=O)[C@H](CC(=O)O)NC(=O)[C@@H]3CCCN3C(=O)[C@H]([C@@H](C)CC)NC(=O)[C@@H]3CSSC[C@H](NC(=O)[C@H](C(C)C)NC(=O)[C@H](CC(C)C)NC(=O)[C@H](CC(N)=O)NC(=O)[C@@H]4CCCN4C(=O)[C@H](CCCNC(=N)N)NC(=O)[C@H](CSSC[C@H](NC(=O)[C@@H](N)CC(=O)O)C(=O)N[C@@H](CC(C)C)C(=O)NCC(=O)N[C@@H](Cc4ccccc4)C(=O)N[C@@H](CCSC)C(=O)N[C@@H](CCCNC(=N)N)C(=O)N[C@@H](CCCCN)C(=O)N3)NC2=O)C(=O)N[C@@H](CO)C(=O)N[C@@H](CCCNC(=N)N)C(=O)N[C@@H]([C@@H](C)O)C(=O)N[C@@H](Cc2c[nH]cn2)C(=O)N[C@@H](CCCCN)C(=O)N[C@@H](Cc2c[nH]c3ccccc23)C(=O)N1)C(=O)N[C@H](C(=O)N[C@@H](Cc1ccccc1)C(N)=O)C(C)C [compound 367] (H-DCLGFMRKCIPDNDKCCRPNLVCSRTHKWCKIVF-NH2; disulfide 2-17, 9-23, 16-30) | – | – | – | 0.06 µM | 8.71 µM | 0.07 µM
CC[C@H](C)[C@@H]1NC(=O)[C@@H]2CSSC[C@@H]3NC(=O)[C@H](C(C)C)NC(=O)[C@H](CC(C)C)NC(=O)[C@H](CC(N)=O)NC(=O)[C@@H]4CCCN4C(=O)[C@H](CCCNC(=N)N)NC(=O)[C@H](CSSC[C@H](NC(=O)[C@@H](N)CC(=O)O)C(=O)N[C@@H](CC(C)C)C(=O)NCC(=O)N[C@@H](Cc4ccccc4)C(=O)N[C@@H](CCSC)C(=O)N[C@@H](CCCNC(=N)N)C(=O)N[C@@H](CCCCN)C(=O)N2)NC(=O)[C@H](CSSC[C@@H](C(=O)N[C@@H](CCCCN)C(=O)N[C@@H](CCSC)C(=O)N[C@H](C(=O)N[C@@H](Cc2ccccc2)C(N)=O)C(C)C)NC(=O)[C@H](Cc2c[nH]c4ccccc24)NC(=O)[C@H](CCCCN)NC(=O)[C@H](Cc2c[nH]cn2)NC(=O)[C@H]([C@@H](C)O)NC(=O)[C@H](CCCNC(=N)N)NC(=O)[C@H](CO)NC3=O)NC(=O)[C@H](CCCCN)NC(=O)[C@H](CC(=O)O)NC(=O)[C@H](CC(N)=O)NC(=O)[C@H](CC(=O)O)NC(=O)[C@@H]2CCCN2C1=O [compound 368] (H-DCLGFMRKCIPDNDKCCRPNLVCSRTHKWCKMVF-NH2; disulfide 2-17, 9-23, 16-30) | – | – | – | 0.14 µM | 6.21 µM | 0.35 µM
CC[C@H](C)[C@@H]1NC(=O)[C@@H]2CSSC[C@@H]3NC(=O)[C@H](C(C)C)NC(=O)[C@H](CC(C)C)NC(=O)[C@H](CC(N)=O)NC(=O)[C@@H]4CCCN4C(=O)[C@H](CCCNC(=N)N)NC(=O)[C@H](CSSC[C@H](NC(=O)[C@@H](N)CC(=O)O)C(=O)N[C@@H](CC(C)C)C(=O)NCC(=O)N[C@@H](Cc4ccccc4)C(=O)N[C@@H](CCSC)C(=O)N[C@@H](CCCNC(=N)N)C(=O)N[C@@H](CCCCN)C(=O)N2)NC(=O)[C@H](CSSC[C@@H](C(=O)N[C@@H](CCCCN)C(=O)N[C@H](C(=O)N[C@H](C(=O)N[C@@H](Cc2ccccc2)C(N)=O)C(C)C)[C@@H](C)O)NC(=O)[C@H](Cc2c[nH]c4ccccc24)NC(=O)[C@H](CCCCN)NC(=O)[C@H](Cc2c[nH]cn2)NC(=O)[C@H]([C@@H](C)O)NC(=O)[C@H](CCCNC(=N)N)NC(=O)[C@H](CO)NC3=O)NC(=O)[C@H](CCCCN)NC(=O)[C@H](CC(=O)O)NC(=O)[C@H](CC(N)=O)NC(=O)[C@H](CC(=O)O)NC(=O)[C@@H]2CCCN2C1=O [compound 369] (H-DCLGFMRKCIPDNDKCCRPNLVCSRTHKWCKTVF-NH2; disulfide 2-17, 9-23, 16-30) | – | – | – | 3.29 µM | 11.1 µM | 3.54 µM
CC[C@H](C)[C@@H]1NC(=O)[C@@H]2CSSC[C@@H]3NC(=O)[C@H](C(C)C)NC(=O)[C@H](CC(C)C)NC(=O)[C@H](CC(N)=O)NC(=O)[C@@H]4CCCN4C(=O)[C@H](CCCNC(=N)N)NC(=O)[C@H](CSSC[C@H](NC(=O)[C@@H](N)CC(=O)O)C(=O)N[C@@H](CC(C)C)C(=O)NCC(=O)N[C@@H](Cc4ccccc4)C(=O)N[C@@H](CCSC)C(=O)N[C@@H](CCCNC(=N)N)C(=O)N[C@@H](CCCCN)C(=O)N2)NC(=O)[C@H](CSSC[C@@H](C(=O)N[C@@H](CCCCN)C(=O)N(C)[C@@H](Cc2ccccc2)C(=O)N[C@H](C(=O)N[C@@H](Cc2ccccc2)C(N)=O)C(C)C)NC(=O)[C@H](Cc2c[nH]c4ccccc24)NC(=O)[C@H](CCCCN)NC(=O)[C@H](Cc2c[nH]cn2)NC(=O)[C@H]([C@@H](C)O)NC(=O)[C@H](CCCNC(=N)N)NC(=O)[C@H](CO)NC3=O)NC(=O)[C@H](CCCCN)NC(=O)[C@H](CC(=O)O)NC(=O)[C@H](CC(N)=O)NC(=O)[C@H](CC(=O)O)NC(=O)[C@@H]2CCCN2C1=O [compound 370] (H-DCLGFMRKCIPDNDKCCRPNLVCSRTHKWCK[NMeF]VF-NH2; disulfide 2-17, 9-23, 16-30) | – | – | – | > 5 µM | > 5 µM | > 5 µM

— patent publication US9340590B2 (priority 2011, dated 2016)
